Experimental data as given in patent US20190183900A1, “COMPOSITION FOR PROLIFERATION, DIFFERENTIATION PROMOTION, OR SENESCENCE INHIBITION OF STEM CELLS, CONTAINING JAK1 INHIBITOR AS ACTIVE INGREDIENT” (UNIVERSITY OF ULSAN FOUNDATION FOR INDUSTRY COOPERATION, priority 2016, published 2019).

Columns and labels:
stem cells [1] = experiment: SA-b-gal staining of poly IC-induced inflammatory senescence; type: cell-based; settings: tofacitinib 1 ug/ml pretreated 2 hours before poly IC 1 ug/ml; measured 2 days after poly IC
Description: More specifically, stem cells were plated in 6 wells (2×10^4 cells/well) and treated with poly IC (1 ug/ml) one day later. […] After 2 days of the poly IC treatment, the degree of senescence was measured using senescence cells histochemical staining kit (CS0030, Sigma). For this, the plate was washed twice with PBS and fixed with fixation buffer (2% formaldehyde, 0.2% glutaraldehyde, 7.04 mM Na2HPO4, 1.47 mM KH2PO4, 0.137 M NaCl, and 2.68 mM KCl) for 6 minutes and reacted with staining buffer (6 mM Potassium Ferricyanide, 6 mM Potassium Ferrocyanide, 1 mg/ml X-gal Solution in phosphate buffer (pH 6)) at 37° C. for 24 hours. The number of b-galactoxidase-positive cells was measured by microscopic observation and the degree of cellular senescence was shown in a graph.

stem cells [2] = experiment: BrdU assay of cell survival rate after poly IC; type: cell-based; settings: tofacitinib 1 ug/ml pretreated 2 hours before poly IC 1 ug/ml; BrdU ELISA 2 days after poly IC
Description: More specifically, cells were plated in 96 wells (1×10^3 cells/well) and treated with poly IC (1 μg/ml) one day later. […] After 2 days of poly IC treatment, cell survival rate was measured using BrdU cell proliferation ELISA (11647229001, Roche). For this, the BrdU labeling solution was treated at 10 μl/well for 4 hours at 37° C. Then, fixdenat buffer was treated by 200 ul/well for 30 minutes to immobilize the cells and reacted with 100 ul/well of anti BrdU-POD solution for 90 minutes. Thereafter, 100 ul of the substrate solution was treated, the OD value at 370 nm wavelength was measured by ELISA, and the cell survival rate was plotted.

stem cells [3] = experiment: real time PCR of senescence, stemness, proliferation and TLR3 signaling genes; type: cell-based; settings: pre-treatment before poly IC
Description: The present inventors have confirmed the expression of proteins involved in proliferation and differentiation promotion of stem cell and stemness increase according to tofacitinib treatment using real time PCR. For this, cells were treated with TRIzol reagent to lyse the cells, and treated with chloroform to separate the aqueous solution layer containing the RNA. The separated aqueous solution was treated with isopropanol to precipitate RNA and centrifuged to extract RNA only. […] Real-time PCR was performed using the CFX Connect Real-Time PCR Detection System (Bio-rad) and primers used were shown in Table 1. Relative mRNA expression levels were analyzed using the comparative threshold cycles (2-^Ct) method.

stem cells [4] = settings: FACS analysis and real time PCR; pre-treatment of tofacitinib before poly IC
Description: More specifically the stem cells were treated with trypsin/EDTA and separated into single cells and mouse anti-human HLA-ABC (555553, BD Biosciences) was reacted at RT for 1 hour and washed three times and then analyzed using a FACS calibur instrument (BD Biosciences).

stem cells [5] = experiment: Western blotting of senescence, stemness, proliferation and TLR3 signaling proteins; type: cell-based; settings: JAK1 inhibitor pretreated 2 hours before poly IC 1 ug/ml, 2 days after poly IC
Description: More specifically, the stem cells were plated in a 10 cm dish (3×10^5 cells/dish) and treated with poly IC (1 ug/ml) one day later. […] After 2 days of poly IC treatment, western blotting was performed for analyzing the protein expression. For this, the cells were treated with RIPA lysis buffer (1% Np-40, 0.5% Na-deoxycholate, 0.4% SDS, 0.15 M NaCl, 0.05 M Tris-HCl (pH 8), Halt Protease and Phosphatase Inhibitor Cocktail (78440, Thermo Scientific)) and reacted in ice for 30 minutes to extract the cells. The cell lysate was centrifuged and the supernatant was collected and quantified using bicinchoninic acid protein assay kit (23225, Thermo Scientific). 10 ug of the protein extract was separated by 12% SDS-PAGE and transferred to a nitrocellulose membrane. After reacting for 1 h in blocking buffer (0.1% Tween 20, 5% BSA in tris buffered saline) at room temperature (RT), the primary antibody was treated and reacted overnight at 4° C. […] After washing three times with TBST solution, peroxidase-conjugated secondary antibody was reacted for 1 hour at RT and protein bands were analyzed using C-DiGit Blot Scanner (LI-COR).

stem cells [6] = experiment: real time PCR of TGF-b and HGF, proteins that inhibit T cell activity; type: cell-based; settings: pre-treatment of tofacitinib before poly IC
Description: For this, cells were treated with TRIzol reagent to lyse the cells, and treated with chloroform to separate the aqueous solution layer containing the RNA. The separated aqueous solution was treated with isopropanol to precipitate RNA and centrifuged to extract RNA only. The extracted RNA was quantified using nanodrop. 2 ug of RNA was synthesized using TOPscript cDNA synthesis kit (RT200, Enzynomics) as a cDNA mixture and used as a template for real time PCR. […] Relative mRNA expression levels were analyzed using the comparative threshold cycles (2-^Ct) method.

| Structure (SMILES) | inflammatory senescence induced by poly IC (b-galactoxidase-positive cells) (stem cells [1]) | cell survival rate by cellular senescence induced by poly IC (stem cells [2]) | increase in expression of TLR3 signaling-related proteins (TLR3, IL6) (stem cells [3]) | mRNA expression of the protein associated with senescence (PCNA), stemness (EZH2, BMI-1) and proliferation (survivin, CyclinD1) (stem cells [3]) | increase of immunogenicity-related proteins HLA-A and HLA-B by poly IC treatment (stem cells [4]) | expression of proteins associated with senescence (PCNA), stemness (EZH2, BMI-1), proliferation (survivin, CyclinD1) (stem cells [5]) | increase in expression of TLR3 signaling-related proteins (TLR3, IL6) (stem cells [5]) | decrease of TGF-b and HGF by treatment of poly IC (stem cells [6]) |
| --- | --- | --- | --- | --- | --- | --- | --- | --- |
| C[C@@H]1CCN(C(=O)CC#N)C[C@@H]1N(C)c1ncnc2[nH]ccc12 [tofacitinib] | significantly reduced | less decreased | less increased | less decreased | less increased | less decreased | less increased | less decreased |
| O=C(Nc1nc2cccc(-c3ccc(CN4CCS(=O)(=O)CC4)cc3)n2n1)C1CC1 [filgotinib] | – | – | less increased | less decreased | – | less decreased | less increased | – |
